Where “and” joins values, the source holds several entries; their conditions need not be identical. Equal values may be shown once.
B1: MOR208 (antibody, human IgG1, kappa, V domains shown)
VH: EVQLVESGGGLVKPGGSLKLSCAASGYTFTSYVMHWVRQAPGKGLEWIGYINPYNDGTKYNEKFQGRVTISSDKSISTAYMELSSLRSEDTAMYYCARGTYYYGTRVFDYWGQGTLVTVSS
VL: DIVMTQSPATLSLSPGERATLSCRSSKSLQNVNGNTYLYWFQQKPGQSPQLLIYRMSNLNSGVPDRFSGSGSGTEFTLTISSLEPEDFAVYYCMQHLEYPITFGAGTKLEIKR
B2: MOR208: anti-CD19 antibody; variable domains in FIG. 3, Fc regions in FIG. 4 (antibody)
heavy: EVQLVESGGGLVKPGGSLKLSCAASGYTFTSYVMHWVRQAPGKGLEWIGYINPYNDGTKYNEKFQGRVTISSDKSISTAYMELSSLRSEDTAMYYCARGTYYYGTRVFDYWGQGTLVTVSSASTKGPSVFPLAPSSKSTSGGTAALGCLVKDYFPEPVTVSWNSGALTSGVHTFPAVLQSSGLYSLSSWTVPSSSLGTQTYICNVNHKPSNTKVDKKVEPKSCDKTHTCPPCPAPELLGGPDVFLFPPKPKDTLMISRTPEVTCVVVDVSHEDPEVQFNWYVDGVEVHNAKTKPREEQFNSTFRVVSVLTVVHQDWLNGKEYKCKVSNKALPAPEEKTISKTKGQPREPQVYTLPPSREEMTKNQVSLTCLVKGFYPSDIAVEWESNGQPENNYKTTPPMLDSDGSFFLYSKLTVDKSRWQQGNVFSCSVMHEALHNHYTQKSLSLSPGK
light: DIVMTQSPATLSLSPGERATLSCRSSKSLQNVNGNTYLYWFQQKPGQSPQLLIYRMSNLNSGVPDRFSGSGSGTEFTLTISSLEPEDFAVYYCMQHLEYPITFGAGTKLEIKRTVAAPSVFIFPPSDEQLKSGTASVVCLLNNFYPREAKVQWKVDNALQSGNSQESVTEQDSKDSTYSLSSTLTLSKADYEKHKVYACEVTHQGLSSPVTKSFNRGEC

Assays:
MEC-1 cells = assay: ADCC / cytotoxicity assay: killing of MEC-1 cells by MOR208 and fludarabine alone and in combination; assay type: cell-based, human; details: for normalized specific killing: background subtracted, combination set to 1, Fludarabine 18 μg/ml, MOR208 66 pM; for % dead cells: raw data, MOR208 66 pm, FLU 18 μg/ml, 72 h pre-incubation, E:T 30:1, 4 h
[1] = tested on: RAMOS human Burkitt's lymphoma cells; assay: Subcutaneously (SC)-implanted human Ramos Burkitt's B-cell lymphoma tumor growth model; assay type: in vivo, SCID mice; details: for Increased time to 4000 mg [%] / Reduced tumor growth at study Day 38 (%): control 0; for Tumor Volume at study day 38, Average: vehicle average 4014
[2] = tested on: RAMOS human lymphoma cells; assay type: in vivo, SCID mice; details: MOR208 3 mg/kg i.v. twice weekly for 3 weeks; FLU 125 mg/kg i.p. once daily Day 0-5; combination of both; vehicle 18.5
Human CD19 = biological target: T1, Human CD19 (human, UniProt P15391 20-556); assay: cell-based or functional assay
T1 sequence: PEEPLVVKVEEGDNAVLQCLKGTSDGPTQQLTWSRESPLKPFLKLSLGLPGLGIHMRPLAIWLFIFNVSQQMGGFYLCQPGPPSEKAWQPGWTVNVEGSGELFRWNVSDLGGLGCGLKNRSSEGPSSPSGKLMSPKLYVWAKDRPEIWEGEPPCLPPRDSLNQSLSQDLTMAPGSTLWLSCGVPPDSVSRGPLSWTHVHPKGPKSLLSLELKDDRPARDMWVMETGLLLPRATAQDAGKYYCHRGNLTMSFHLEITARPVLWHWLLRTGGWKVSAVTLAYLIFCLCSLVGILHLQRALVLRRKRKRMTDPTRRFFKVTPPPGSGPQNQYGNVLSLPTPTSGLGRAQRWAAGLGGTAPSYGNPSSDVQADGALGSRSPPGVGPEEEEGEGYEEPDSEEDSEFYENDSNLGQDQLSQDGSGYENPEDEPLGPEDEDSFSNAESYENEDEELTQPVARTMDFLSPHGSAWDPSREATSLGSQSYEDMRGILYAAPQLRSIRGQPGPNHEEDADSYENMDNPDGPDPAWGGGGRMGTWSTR

[3] = Experiment 1 (PBMC donor 1), control RefMab33
[4] = Experiment 2 (PBMC donor 2), control RefMab33
[5] = Experiment 3 (PBMC donor 3), control PBMCs alone
[6] = MOR208 10 mg/kg, FLU 125 mg/kg, combination of MOR208 and FLU 125
[7] = MOR208 10 mg/kg, Fludarabine 125 mg/kg IP Q1Dx5, combination MOR208/FLU 125
[8] = MOR208 10 mg/kg, Fludarabine 125 mg/kg, MOR208 + FLU 125 combination

Molecule | normalized specific killing (MEC-1 cells; Average of Experiments 1-3) | % dead cells (MEC-1 cells; [3]) | normalized specific killing (MEC-1 cells; Experiment 1) | % dead cells (MEC-1 cells; [4]) | normalized specific killing (MEC-1 cells; Experiment 2) | % dead cells (MEC-1 cells; [5]) | normalized specific killing (MEC-1 cells; Experiment 3) | Increased time to 4000 mg [%] [1, 6] | Reduced tumor growth at study Day 38 (%) [1, 6] | Tumor Volume at study day 38, Average [1, 7] | Increased time to 4000 mg [%], normalized to Fractional Product combination = 1 [1, 8] | Reduced tumor growth at study Day 38 (%), normalized to Fractional Product combination = 1 [1, 8] | Median Survival Time [2] | other results
Fludarabine [reference compound] | 0.7 | 36.39% | 0.6 | 38.48% | 0.7 | 57.27% | 0.8 | 22.37% | 48.3% | 2073 mm^3 | 0.62 | 0.75 | 22 days | EC50 (MEC-1 cell killing) (MEC-1 cells; FLU, test concentration stated to be near or at the EC50): ~18 µg/mL; Increased time to 4000 mg [%] ([1]; FLU 250 mg/kg): 30.19%; Reduced tumor growth at study Day 38 (%) ([1]; FLU 250 mg/kg): 64.8%; Increased time to 4000 mg [%], normalized to Fractional Product combination = 1 ([1]; Fludarabine 250 mg/kg): 0.8; Reduced tumor growth at study Day 38 (%), normalized to Fractional Product combination = 1 ([1]; Fludarabine 250 mg/kg): 0.9; Tumor Volume at study day 38, Average ([1]; Fludarabine 250 mg/kg IP Q1Dx5): 1413 mm^3
B1 |  |  |  |  |  |  |  |  |  |  |  |  |  | EC50 of MEC-1 cell killing (ADCC) (Human CD19): ~0.066 nM
B2 | 0.5 | 35.2% | 0.6 | 29.8% | 0.4 | 47.01% | 0.5 | 17.52% | 38.5% | 2468 mm^3 | 0.48 | 0.57 | 23.5 days | Tumor Volume at study day 38 ([1]; single values (Group 1-8), MOR208 10 mg/kg, Fludarabine 125 mg/kg IP Q1Dx5, combination MOR208/FLU 125): 1764 mm^3 and 1862 mm^3 and 3402 mm^3 and 2560 mm^3 and 2816 mm^3 and 2138 mm^3 and 2025 mm^3 and 3179 mm^3
